Where two headings read alike, the source gives them in different places.
Assays:
Aβ1-42 fibres = Aβ1-42 fibres (Homo sapiens, UniProt P05067); experiment: In vitro inhibition of ThT binding and determination of Ki (fluorescence), Aβ1-42 fibres; details: vs Thioflavin T 500 nM; Aβ1-42 fibres 500 nM; PBS pH7.4, 1 h RT; read-out: Ki Aβ
Description: (§1) To obtain fiber assembly, α-syn is incubated in Tris-HCl 50 mM pH7.5, KCl 150 mM at 37° C. under continuous agitation during 4 days. The lyophilized Aβ1-42 was dissolved in 1,1,1,3,3,3-Hexafluoro-2-propanol (HFIP) at 0.2 mg/mL and incubated for 24 h at 37° C. to obtain the complete solubilization. The HFIP is evaporated under nitrogen stream to obtain a dry product. To start the fiber assembly, the dry peptide is resuspended in PBS pH7.4, 10% (v/v) DMSO and incubated at 37° C. for 3 days without agitation.
(§2) Protein fibers are systematically observed by electron microscopy (Jeol 1400). The images are recorded with a CCD camera (Gatan Orius). Finally, the percentage of α-syn and Aβ1-42 aggregated into fibers is checked on the pellet after centrifugation at 40000×g for 20 min and determination of the concentration of soluble protein/peptide remaining in the supernatant.
(§3) The samples are incubated for 1 h at room temperature (RT) to reach equilibrium. […] From each curve, the IC50 value is measured using the following equation: Y=min+(max−min)/1+([…])^slope

α-syn fibres = α-syn fibres (Homo sapiens (Human), UniProt P37840); experiment: In vitro inhibition of ThT binding and determination of Ki (fluorescence), α-syn fibres; details: for Ki: vs Thioflavin T 500 nM, α-syn fibres 200 nM, PBS pH7.4, 1 h RT, read-out: Ki αsyn; for α-syn selectivity according to analysis of Ki (Table 5): selective = good affinity and at least two times greater than for at least one of the two other proteins
Description: as §1, §2, §3

Tau fibres = Tau fibres (Homo sapiens (Human), UniProt P10636); experiment: In vitro inhibition of ThT binding and determination of Ki (fluorescence), Tau fibres; details: for Tau selectivity according to analysis of Ki (Table 5): selective = good affinity and at least two times greater than for at least one of the two other proteins
Description: (§4) Tau protein in PBS buffer containing 1 mM DTT is assembled into fiber in the presence of one twelfth of a molar equivalent of heparin at 37° C. under stirring.
as §3

Aβ1-42 fibers = Aβ1-42 fibers (Homo sapiens, UniProt P05067); experiment: In vitro direct determination of Kd and Bmax by fluorescence, Aβ1-42 fibers; assay type: binding; details: for Aβ Bmax1: density of binding sites; for Aβ Bmax1 / Kd: direct fluorescence, Scatchard analysis; for Kd: Aβ1-42 fibers 500 nM, read-out: Aβ Kd1; for Aβ Bmax1 (number of sites/monomer): in brackets in the Bmax cell
Description: as §1
(§5) Fresh solutions of each test compound (2.5 mM in DMSO) are diluted in PBS pH=7.4 at concentrations between 0.5 nM and 5 μM in the presence or absence of α-syn (200 nM), Aβ1-42 (500 nM) or Tau (200 nM) fibers in a final 2 mL volume. After 1 h of incubation at RT, the binding of each compound to α-syn, A131-42 or Tau fibers is measured by fluorescence using the spectral changes of the compounds during their binding to the fibers, using the appropriate excitation/emission wavelengths (those giving the highest fluorescence variation during binding to the fibres). For each concentration of compound added to the fibres, the bound and free fractions are measured by fluorescence according to the following equation: Fm=FBB+FF×(T−B)
(§6) The value of FF is determined by measuring the fluorescence of known concentrations of compounds in the absence of fibres. The FB value is determined by measuring the maximum fluorescence of known concentrations of compounds in the presence of saturated concentrations of α-syn, Aβ1-42, or Tau fibers.
(§7) The values of B thus determined versus the concentrations of the free fractions (T-B) are analyzed according to the Michaelis-Menten equation. The affinity (Kd) and density of binding sites within the fibers of α-syn, Aβ1-42 or Tau (Bmax) are determined by Scatchard analysis, which also makes it possible to highlight multiple site classes.

α-syn fibers = α-syn fibers (Homo sapiens (Human), UniProt P37840); experiment: In vitro direct determination of Kd and Bmax by fluorescence, α-syn fibers; assay type: binding; details: for αsyn Bmax1: density of binding sites; for αsyn Bmax1 / Kd: direct fluorescence, Scatchard analysis; for Kd: α-syn fibers 200 nM, read-out: αsyn Kd1; for αsyn Bmax1 (number of sites/monomer): in brackets in the Bmax cell; for α-syn selectivity according to analysis of Kd (Tables 6 and 7): selective = good affinity and at least two times greater than for at least one of the two other proteins
Description: as §1, §5, §6, §7

Tau fibers = Tau fibers (Homo sapiens (Human), UniProt P10636); experiment: In vitro direct determination of Kd and Bmax by fluorescence, Tau fibers; assay type: binding; details: for Tau Bmax1: density of binding sites; for Tau Bmax1 / Kd: direct fluorescence, Scatchard analysis; for Kd: Tau fibers 200 nM, read-out: Tau Kd1; for Tau Bmax1 (number of sites/monomer): in brackets in the Bmax cell; for Tau selectivity according to analysis of Kd (Tables 6 and 7): selective = good affinity and at least two times greater than for at least one of the two other proteins
Description: Human Tau protein (isoform h2N4RTau) is expressed in the vector pET11d in E. Coli (strain BL21 (DE3), (Stratagene, La Jolla, Calif.)) and purified according to the described method (Barghorn S, Biernat J, Mandelkow E. (2005) Methods Mol Biol. 299:35-51). The Tau purified concentration is determined by measuring the absorbance at 280 nm using a molar extinction coefficient of 7450 M^−1 cm^−1.
as §4, §5
Where Fm is the fluorescence measured in the presence of fibers at a concentration T of the compound added to the fibers, FB is the specific fluorescence of the bound compound, FF is the specific fluorescence of the free compound, and B is the concentration of the fiber bound compound at a given concentration T (Bell, J. E., “Fluorescence; Solution Studies”, Spectrometry in Biochemistry, vol. I, Bell, J. E., ed., CRC Press, Inc., Boca Raton, Fla., pp. 155-194 (1981)).
as §6
Thus, at each point, the concentration of bound compound B is determined according to the following equation: B=(Fm−FF×T)/(FB−FF)
as §7

[1] = vs Thioflavin T 500 nM, Tau fibres 200 nM, PBS pH7.4, 1 h RT

Sequence of Aβ1-42 fibres (P05067 672-713 limits assumed): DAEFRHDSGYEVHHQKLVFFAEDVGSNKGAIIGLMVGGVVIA
Sequence of Aβ1-42 fibers (P05067 672-713 limits assumed): as above
Sequence of Tau fibers (P10636 other isoform, or with tags, fused parts or gaps): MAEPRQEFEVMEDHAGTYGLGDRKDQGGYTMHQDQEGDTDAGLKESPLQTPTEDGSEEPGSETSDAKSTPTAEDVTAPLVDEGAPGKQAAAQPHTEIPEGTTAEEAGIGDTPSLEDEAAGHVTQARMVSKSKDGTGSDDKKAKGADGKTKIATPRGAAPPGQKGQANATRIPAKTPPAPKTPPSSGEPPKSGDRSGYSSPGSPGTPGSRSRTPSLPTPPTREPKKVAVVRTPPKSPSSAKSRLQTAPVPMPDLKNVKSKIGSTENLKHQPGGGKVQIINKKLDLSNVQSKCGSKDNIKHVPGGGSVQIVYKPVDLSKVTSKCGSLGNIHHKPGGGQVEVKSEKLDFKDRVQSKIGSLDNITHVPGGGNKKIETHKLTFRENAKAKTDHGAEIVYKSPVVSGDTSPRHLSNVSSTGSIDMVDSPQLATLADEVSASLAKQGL
Sequence of Tau fibres (P10636 other isoform, or with tags, fused parts or gaps): as above

SMILES	Ki (Aβ1-42 fibres) [nM]	Ki (α-syn fibres) [nM]	Ki (Tau fibres; [1]) [nM]	Aβ Bmax1 (Aβ1-42 fibers) [nmol/μmol prot]	Kd (Aβ1-42 fibers) [nM]	Aβ Bmax1 (number of sites/monomer) (Aβ1-42 fibers)	αsyn Bmax1 (α-syn fibers) [nmol/μmol prot]	Kd (α-syn fibers) [nM]	αsyn Bmax1 (number of sites/monomer) (α-syn fibers)	Tau Bmax1 (Tau fibers) [nmol/μmol prot]	Kd (Tau fibers) [nM]	Tau Bmax1 (number of sites/monomer) (Tau fibers)	α-syn selectivity according to analysis of Ki (Table 5) (α-syn fibres)	Ki (Tau fibres) [nM]	Tau selectivity according to analysis of Ki (Table 5) (Tau fibres)	α-syn selectivity according to analysis of Kd (Tables 6 and 7) (α-syn fibers)	Tau selectivity according to analysis of Kd (Tables 6 and 7) (Tau fibers)
CNc1ccc(/C=C/c2ccc(OCCOCCOCCF)nc2)cc1 [AV45, reference compound]	2.2 ± 1	76.6 ± 44	30.6 ± 9	3.33 ± 0.2	1.68 ± 0.2	1/300	27.9 ± 19	24.3 ± 20	1/35	92.0 ± 20	19.6 ± 5	1/11					
CN(C)c1ccc(C#Cc2cc3cccnc3[nH]2)cc1 [Compound 22a, 4-((1H-Pyrrolo[2,3-b]pyridin-2-yl)ethynyl)-N,N-dimethylaniline]	24.5 ± 9	4.7 ± 2		3.04 ± 0.6	11.8 ± 3	1/300	69.5 ± 20	0.53 ± 0.2	1/14	93.0 ± 15	0.44 ± 0.1	1/10	selective	4.61 ± 0.2	selective	selective	selective
CN(C)c1ccc(C#Cc2cc3ccncc3[nH]2)cc1 [Compound 22b, 4-((1H-Pyrrolo[2,3-c]pyridin-2-yl)ethynyl)-N,N-dimethylaniline]	91.5 ± 11	28.7 ± 8		2.3 ± 0.8	5.2 ± 3	1/400	80.0 ± 42	1.4 ± 1	1/15	37.1 ± 10	0.49 ± 0.2	1/30	selective	8.4 ± 2	selective	selective	selective
CN(C)c1ccc(C#Cc2cc3ncccc3[nH]2)cc1 [Compound 22c, 4-((1H-Pyrrolo[3,2-b]pyridin-2-yl)ethynyl)-N,N-dimethylaniline]	21.3 ± 7	26 ± 16		1.44 ± 0.6	2.9 ± 2	1/700	82.5 ± 5	3.25 ± 0.2	1/12	26.5 ± 5	0.13 ± 0.05	1/40		12 ± 1	selective		selective
CN(C)c1ccc(C#Cc2cc3cnccc3[nH]2)cc1 [Compound 22d, 4-((1H-Pyrrolo[3,2-c]pyridin-2-yl)ethynyl)-N,N-dimethylaniline]				2.4 ± 0.8	3.6 ± 2	1/400	6.0 ± 1	1 ± 0.5	1/170	12.5 ± 5	2.4 ± 0.9	1/80				selective	
CN(C)c1ccc(C#Cc2cc3ccc(Cl)nc3[nH]2)cc1 [Compound 22e, 4-((6-Chloro-1H-pyrrolo[2,3-b]pyridin-2-yl)ethynyl)-N,N-dimethylaniline]	909 ± 143	49.9 ± 12											selective	25.1 ± 8	selective		
CN(C)c1ccc(C#Cc2cc3ccc(F)nc3[nH]2)cc1 [Compound 22f, 4-((6-Fluoro-1H-pyrrolo[2,3-b]pyridin-2-yl)ethynyl)-N,N-dimethylaniline]	349 ± 256			21.6 ± 3	16.8 ± 2	1/50											
CN(C)c1ccc(C#Cc2cc3cc(F)cnc3[nH]2)cc1 [Compound 22g, 4-((5-Fluoro-1H-pyrrolo[2,3-b]pyridin-2-yl)ethynyl)-N,N-dimethylaniline]	318 ± 95																
CN(C)c1ccc(C#Cc2cc3c(F)ccnc3[nH]2)cc1 [Compound 22h, 4-((4-Fluoro-1H-pyrrolo[2,3-b]pyridin-2-yl)ethynyl)-N,N-dimethylaniline]	244 ± 84																
CN(C)c1ccc(C#Cc2cc3ccc(-c4cccs4)nc3[nH]2)cc1 [Compound 25a, N,N-Dimethyl-4-((6-(thiophen-2-yl)-1H-pyrrol[2,3-b]pyridin-2-yl)ethynyl)aniline]				5.8 ± 0.32	4.9 ± 0.6	1/170	53.5 ± 10	0.49 ± 0.2	1/20	70.4 ± 4	1.67 ± 0.5	1/10				selective	
CN(C)c1ccc(C#Cc2cc3ccc(-c4ccsc4)nc3[nH]2)cc1 [Compound 25b, N,N-Dimethyl-4-((6-(thiophen-3-yl)-1H-pyrrol[2,3-b]pyridin-2-yl)ethynyl)aniline]				11.0 ± 1	4.27 ± 0.6	1/90											
CN(C)c1ccc(C#Cc2cc3ccc(-c4ccc(F)nc4)nc3[nH]2)cc1 [Compound 25c, 4-((6-(6-Fluoropyridin-3-yl)-1H-pyrrolo[2,3-b]pyridin-2-yl)ethynyl)-N,N-dimethylaniline]				11.0 ± 2	3.1 ± 1	1/90											
CC(=C(C#N)C#N)c1ccc2cc(N(C)CCF)ccc2c1 [FDDNP, reference compound]	4.6 ± 3	25.1 ± 5	9.5 ± 1	10.2 ± 1	4.2 ± 1	1/100	39.5 ± 10	16.1 ± 6	1/25	138.5 ± 16	34.9 ± 6	1/7					

Reference: patent publication US10906900B2, “Compounds for using in imaging and particularly for the diagnosis of neurodegenerative diseases” (CENTRE NATIONAL DE LA RECHERCHE SCIENTIFIQUE, priority 2016, dated 2021)
